Measurements taken from patent US5478807A, “Use of relaxin in the treatment of bradycardia” (Genentech, Inc., priority 1992, dated 1995).
Where two headings read alike, the source gives them in different places.

Target: T1, relaxin receptors in the atria of rat heart (Rattus norvegicus, UniProt Q6R6I6)
T1 construct: The frozen tissues were sectioned to 16 μm thickness; from tissue; host or cells: rat heart (right and left atrium) frozen sections, from normal and from hormone-treated gonadectomized rats
T1 sequence (Q6R6I6 1-758): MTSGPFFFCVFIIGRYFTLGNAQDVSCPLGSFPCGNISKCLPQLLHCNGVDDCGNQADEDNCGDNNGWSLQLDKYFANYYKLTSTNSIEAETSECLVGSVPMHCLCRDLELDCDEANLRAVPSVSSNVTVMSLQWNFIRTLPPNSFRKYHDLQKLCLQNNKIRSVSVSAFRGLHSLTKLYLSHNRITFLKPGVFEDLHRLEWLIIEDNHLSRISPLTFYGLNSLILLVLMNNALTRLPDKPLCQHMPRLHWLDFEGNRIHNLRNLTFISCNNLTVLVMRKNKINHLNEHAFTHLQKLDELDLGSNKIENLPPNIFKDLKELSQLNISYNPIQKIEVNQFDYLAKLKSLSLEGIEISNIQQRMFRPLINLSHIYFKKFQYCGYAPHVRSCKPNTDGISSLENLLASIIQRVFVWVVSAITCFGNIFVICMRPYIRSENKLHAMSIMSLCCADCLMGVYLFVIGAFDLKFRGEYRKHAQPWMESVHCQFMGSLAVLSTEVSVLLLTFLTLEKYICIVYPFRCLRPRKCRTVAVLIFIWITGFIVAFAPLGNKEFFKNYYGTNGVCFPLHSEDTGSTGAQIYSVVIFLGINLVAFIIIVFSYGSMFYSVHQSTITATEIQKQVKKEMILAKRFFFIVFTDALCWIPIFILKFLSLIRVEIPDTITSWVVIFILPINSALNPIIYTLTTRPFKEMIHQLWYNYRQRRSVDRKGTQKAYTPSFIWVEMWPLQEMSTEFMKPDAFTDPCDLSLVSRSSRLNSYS
Assay: Displacement of 32P-relaxin binding in rat heart tissue sections (autoradiography)
Conditions: for Kd: read-out: dissociation constant (Kd)
Procedure: Ten-week-old normal male and cyclic female Sprague-Dawley rats (Charles River Breeding Laboratories, Wilmonton, Mass.) were used for binding specificity and binding displacement experiments. These were given food and water ad libidium and housed in a room with the ambient temperature controlled around 21° C.
For hormonal control experiments, 10-11-week-old female rats were ovariectomized for two weeks and then injected s.c. with 10 μg estradiol cyclopentyl propionate in a […] vehicle or with vehicle alone. Likewise, 10-11-week-old male rats were castrated for 2 weeks and were injected with either 10 μg estradiol cyclopentyl propionate, 10 μg testosterone, or vehicle alone. The rats were sacrificed 7 days later by asphyxiation with CO2. The relevant tissues were removed rapidly and frozen in powdered dry ice immediately.
The frozen tissues were sectioned to 16 μm thickness using a Reichert-Jung Model 2800 Frigocut cryostat (Cambridge Instruments). Tissue sections were fixed onto gelatin/chromium potassium sulfate treated microscope slides by warming, and immediately refrozen and stored at -80° C. overnight or longer.
For binding of ^32 P-relaxin to the tissue sections, frozen slides were prewashed with binding buffer (Hank's balanced salt solution supplemented with 20 mMHEPES, pH 7.2, 1 mg/ml BSA, 0.1 mM PMSF, and 1 μg/ml leupeptin) at 4° C. for 1.5-2 hours. The tissue sections were then covered with 600-700 μl of 100 pM ^32 P-relaxin with or without excess unlabeled relaxin and other competing agents as specificity control, and incubated at 4° C. for one hour. The slides were washed 3 times for 15-30 minutes each, with binding buffer. The slides were air-dried and mounted on filter paper and exposed to Hyperfilm-βMAX (Amersham) for 3-5 days.
Regions of binding were determined by overlaying the autoradiographs with adjacent sections counterstained with hematoxylin-eosin. For relaxin binding displacement experiments, consecutive 16 μm sections were incubated with 100 pM of ^32 P-relaxin in the absence and presence of increasing concentrations (serial three-fold increases) of unlabeled relaxin in the range of 0.1-100 nM. Pseudocolor reconstruction and quantitative analysis of ^32 P-relaxin binding autoradiographs were performed with a RAS-3000 image analysis system (Amersham). The OD or radioactivities (cpm) of bound ^32 P relaxin (maximum binding in a particular region) were quantified by computerized densitometry based on parallel sets of ^32 P-relaxin standards (ranging from 50 to 2000 cpm) blotted onto nitrocellulose membranes (Trans-Blot SF, Bio-Rad, Richmond, Calif.). The binding inhibition data were fit to a four parameter equation to obtain the ED50 (the concentration of unlabeled relaxin yielding 50% displacement of the binding of ^32 p-relaxin). The dissociation constant (Kd) for relaxin was calculated by the method of Cheng and Prusoff [Biochem. Pharmacol. 22, 3099-3108 (1973)].

displacement of the binding of 32P-relaxin (100 nM unlabeled relaxin, atria of normal male rat heart): fully displaced
Kd (atria of estrogen-treated ovariectomized rat heart): 0.86 ± 0.35 nM
Kd (atria of normal female rat heart, displacement of 32P-H2 relaxin, mean±S.E. of two regions): 1.37 ± 0.13 nM
extent of displacement of 32P-relaxin binding (heart, increasing concentrations of unlabeled relaxin): total displacement
Substance: relaxin
displacement of the binding of 100 pM 32P-relaxin (100 nM competitor, normal female rat heart): displacement of the binding of 100 pM ^32 P-relaxin by 100 nM unlabeled relaxin
